Read-outs that look alike come from different tables or passages of the source.
How the values were obtained:
rgRSV224 virus = assay: microbe, parasite or virus in culture; assay type: cell-based, respiratory syncytial virus (RSV); conditions: human respiratory syncytial virus, HeLa, 72 h, read-out: WT activity EC50
Method: (§1) Black 96-well clear-bottom microtiter plates (Corning, Amsterdam, The Netherlands) were filled in duplicate using a customized robot system with serial 4-fold dilutions of compound in a final volume of 50 μl culture medium [RPMI medium without phenol red, 10% FBS, 0.04% gentamycin (50 mg/ml) and 0.5% DMSO]. Then, 100 μl of a HeLa cell suspension (5×10^4 cells/ml) in culture medium was added to each well followed by the addition of 50 μl rgRSV224 (MOI=0.02) virus in culture medium using a multidrop dispenser (Thermo Scientific, Erembodegem, Belgium). rgRSV224 virus is an engineered virus that includes an additional GFP gene (Hallak et al, 2000) and was in-licensed from the NIH (Bethesda, Md., USA). Medium, virus- and mockinfected controls were included in each test. Cells were incubated at 37° C. in a 5% CO2 atmosphere. Three days post-virus exposure, viral replication was quantified by measuring GFP expression in the cells by a MSM laser microscope (Tibotec, Beerse, Belgium). The EC50 was defined as the 50% inhibitory concentration for GFP expression. In parallel, compounds were incubated for three days in a set of white 96-well microtitier plates (Corning) and the cytotoxicity of compounds in HeLa cells was determined by measuring the ATP content of the cells using the ATPlite kit (PerkinElmer, Zaventem, Belgium) according to the manufacturer's instructions. The CC50 was defined as the 50% concentration for cytotoxicity.

[1] = Cytotoxicity in HeLa cells, ATP content (ATPlite kit); assay type: cell-based; conditions: human
Method: as §1

[2] = HeLa cells, three days incubation, ATP content, read-out: Toxicity CC50

**Q.** With `CC(C)CCn1c(Cn2c(=O)n(C3CC3)c3ccncc32)c(C(N)=O)c2ccccc21` [Compound 14, 2-((1-cyclopropyl-2-oxo-1H-imidazo[4,5-c]pyridin-3(2H)-yl)methyl)-1-isopentyl-1H-indole-3-carboxamide] as the compound, how does the EC50 (rgRSV224 virus) read?
**A.** The EC50 was 0.00451 µM.

**Q.** And the CC50 at 3 days [1, 2]?
**A.** The CC50 at 3 days was greater than 24.6 µM.

**Q.** For `O=c1n(Cc2c(I)c3ccc(Cl)cc3n2CCCCO)c2cnccc2n1C1CC1` [Compound 15, 3-((6-Chloro-1-(4-hydroxybutyl)-3-iodo-1H-indol-2-yl)methyl)-1-cyclopropyl-1H-imidazo[4,5-c]pyridin-2(3H)-one], which EC50 (rgRSV224 virus) is on record?
**A.** The EC50 was 0.0767 µM.

**Q.** And the CC50 at 3 days [1]?
**A.** The CC50 at 3 days was greater than 9.84 µM.

**Q.** Which EC50 (rgRSV224 virus) does the source give for `O=c1n(Cc2cc3ccc(Cl)cc3n2CCCCO)c2cnccc2n1C1CC1` [Compound 16, 3-((6-Chloro-1-(4-hydroxybutyl)-1H-indol-2-yl)methyl)-1-cyclopropyl-1H-imidazo[4,5-c]pyridin-2(3H)-one] here?
**A.** The EC50 was 0.124 µM.

**Q.** What about the CC50 at 3 days [1] of the same compound?
**A.** The CC50 at 3 days was greater than 9.84 µM.

**Q.** Which EC50 (rgRSV224 virus) does the source give for `CC(C)CCn1c(Cn2c(=O)n(C3CC3)c3ccncc32)c(C(=O)O)c2ccccc21` [Compound 17, 2-((1-cyclopropyl-2-oxo-1H-imidazo[4,5-c]pyridin-3(2H)-yl)methyl)-1-isopentyl-1H-indole-3-carboxylic acid] here?
**A.** Its EC50 is 0.159 µM.

**Q.** What about the CC50 at 3 days [1, 2] of the same compound?
**A.** The CC50 at 3 days was greater than 98.4 µM.

**Q.** With `CCOC(=O)c1c(Cn2c(=O)n(C3CC3)c3ccncc32)n(CCC(C)C)c2ccccc12` [Compound 18, ethyl 2-((1-cyclopropyl-2-oxo-1H-imidazo[4,5-c]pyridin-3(2H)-yl)methyl)-1-isopentyl-1H-indole-3-carboxylate] as the compound, how does the EC50 (rgRSV224 virus) read?
**A.** Its EC50 is 3.01 µM.

**Q.** And the CC50 at 3 days [1, 2]?
**A.** The CC50 at 3 days was 32.1 µM.

**Q.** With `CC(C)CCn1c(Cn2c(=O)n(C3CC3)c3ccncc32)c(C(=O)NS(C)(=O)=O)c2ccccc21` [Compound 19, 2-((1-cyclopropyl-2-oxo-1H-imidazo[4,5-c]pyridin-3 (2H)-yl)methyl)-1-isopentyl-N-(methylsulfonyl)-1H-indole-3-carboxamide] as the compound, how does the EC50 (rgRSV224 virus) read?
**A.** The EC50 was 3.21 µM.

**Q.** And the CC50 at 3 days [1, 2]?
**A.** Its CC50 at 3 days is greater than 9.84 µM.
